This is an account of results in patent US8741911B2, “Raf inhibitor compounds” (Eli Lilly and Company, priority 2012, dated 2014).

SMILES strings stand for the structures. Like-named read-outs stand apart in the source and are kept apart here.

The test system of one assay is SK-OV-3. As to the kind of experiment: CellTiter-Glo proliferation and viability assay. Format: cell-based. The following applies: Homo sapiens. In general terms: ATP-based viability assays read luminescence as a measure of living cells.
A further assay has as its system PC-3. As to the kind of experiment: CellTiter-Glo proliferation and viability assay. It counts as cell-based. To be noted: Homo sapiens.
A further assay relates to LN 229. The assay is described as follows: CellTiter-Glo proliferation and viability assay. Format: cell-based. The following applies: Homo sapiens.
For the next assay, the system named is P30-OHK. The assay is described as follows: CellTiter-Glo proliferation and viability assay. It counts as cell-based. To be noted: Homo sapiens, read-out: Abs IC50.
Another assay has as its system IM-9. As to the kind of experiment: CellTiter-Glo proliferation and viability assay. It counts as cell-based. The following applies: Homo sapiens, read-out: Abs IC50.
Assay [1] relates to hematologic cancer cell lines with N-Ras mutations B-Raf wild type. As to the kind of experiment: CellTiter-Glo proliferation and viability assay, N-Ras mutant hematologic panel. To be noted: Homo sapiens; 7 of the 9 hematologic cancer cell lines with N-Ras mutations B-Raf wild type. Format: cell-based. As to the method:
Additional N-RAS mutant B-Raf wild type hematologic cancer cell lines were tested for sensitivity to Example 1. N-Ras activating mutations are common in hematologic cancers occurring at a frequency of 10-30%. Two B-Raf V600E mutant melanoma cell lines (A-375 and SK-Mel-28), nine N-Ras mutant hematologic cell lines (HL-60, THP-1, TALL-1, C8166, H9, IM-9, GA-10 clone 4, P31-FUJ, MOLT-4) and seven N-Ras wild-type cell lines (LOUCY, HEL, U266, EB2, P30-OHK, NOMO-1, CCRF-CEM) were tested, and the IC50 data reported.

For a further assay, the system named is huH-1. The assay is described as follows: CellTiter-Glo proliferation and viability assay. Format: cell-based. To be noted: Homo sapiens.
Assay [2] relates to phospho-MEK and phospho-ERK in SK-MeI-2 cells. As to the kind of experiment: Immunoblotting (Western Blot) analysis of phospho-MEK and phospho-ERK. Format: cell-based, human. To be noted: SK-MeI-2, Western Blot. As to the method:
N-Ras mutations B-Raf wild type leads to MAPK activation through Raf proteins, particularly C-Raf.
Testing is carried out at doses of 0, and 11 serial dilutions ranging from 0.17 to 10000 nM. Protein lysates are generated by treatment of the cells with RIPA lysis buffer from Millipore. Western blotting analysis is performed substantially as described in Yadav et al, Molecular Carcinogenesis, 2011, 50: 346-52. Briefly, SDS-PAGE is performed on cell lysates containing 20 ug of total protein using 4-20% Novex® tri-glycine gradient gels (Invitrogen). Protein is transferred onto […] nitrocellulose membranes using NuPAGE® Transfer Buffer (Invitrogen) and 10% methanol at 100 V, 4° C. for 1 hr. Generally, the primary antibody is used at 1:1000 dilution, and secondary antibody at 1:20000 dilution. Proteins are detected using the Odyssey Infrared Imaging System (Li-COR Biosciences). Antibodies against ERK1/2, phospho-ERK1/2, phospho-MEK1/2, and actin are obtained from Cell Signaling Technology.

The test system of the next assay is NCI-H1993. As to the kind of experiment: CellTiter-Glo proliferation and viability assay. Format: cell-based. The following applies: Homo sapiens.
In the next assay the test system is Colo205 cells. The assay is described as follows: CellTiter-Blue Colo-205 cell proliferation assay. Format: cell-based. To be noted: Homo sapiens; Colo-205, CellTiter-Blue; read-out: Cell Proliferation Inhibition IC50. As to the method: Colo205 cells (catalog #HB-8307) are obtained from the American Type Culture Collection (ATCC, Manassas, Va.). Briefly, cells are grown in RPMI 1640 supplemented with 10% characterized fetal bovine serum (Invitrogen, Carlsbad, Calif.), 1 mM sodium pyruvate, and 1% Penicillin/Streptomycin/L-Glutamine at 37 degrees Celsius, 5% CO2, and 95% humidity. Cells are allowed to expand until reaching 30-60% confluency at which point they are subcultured or harvested for assay use. A serial dilution of test compound is dispensed into a 384-well black clear bottom plate in triplicate. One thousand two-hundred fifty cells are added per well in 50 μL complete growth medium in the 384-well plate. Plates are incubated for 67 hours at 37 degrees Celsius, 5% CO2, and 95% humidity. At the end of the incubation period, 10 μL of a 440 μM solution of resazurin (Sigma, St. Louis, Mo.) in PBS is added to each well of the plate and plates are incubated for an additional 5 hours at 37 degrees Celsius, 5% CO2, and 95% humidity. Plates are read on a Synergy2 reader (Biotek, Winooski, Vt.) using an excitation of 540 nm and an emission of 600 nm. Data is analyzed using Prism software (Graphpad, San Diego, Calif.) to calculate IC50 values.
The A375, HT-29, and Colo-205 cells (ATCC) harbor a V600E mutation.

In a further assay the test system is NCI-H1573. As to the kind of experiment: CellTiter-Glo proliferation and viability assay. Format: cell-based. To be noted: Homo sapiens.
Another assay deals with SK-HEP-1. The assay is described as follows: CellTiter-Glo proliferation and viability assay. Format: cell-based. The following applies: Homo sapiens, SK-HEP1, read-out: Abs IC50.
The test system of the next assay is THP-1. The assay is described as follows: CellTiter-Glo proliferation and viability assay. To be noted: Homo sapiens. Format: cell-based.
Another assay deals with HT-29. As to the kind of experiment: CellTiter-Glo proliferation and viability assay. It counts as cell-based. To be noted: Homo sapiens.

Regarding `CNc1ncc2cc(-c3cc(NC(=O)NCCC(C)(C)C)c(F)cc3C)c(C)nc2n1` [Example 1, 1-(3,3-Dimethylbutyl)-3-(2-fluoro-4-methyl-5-(7-methyl-2-(methylamino)pyrido[2,3-d]pyrimidin-6-yl)phenyl)urea], the IC50 with SK-OV-3 (read-out: Abs IC50) is above 20 nM; in the assay on SK-OV-3 (read-out: Rel IC50), 10.8 nM; with PC-3 (read-out: Abs IC50) it was above 20 nM; in the assay on PC-3 (read-out: Rel IC50) it was above 20 nM; in the assay with LN 229 (read-out: Abs IC50), 1.22 nM; in the assay on LN 229 (read-out: Rel IC50), 1.08 nM. Also, the IC50 with P30-OHK was 1.43 nM; with IM-9, 0.38 nM; in [1], below 1000 nM; in the assay on huH-1 (read-out: Abs IC50), 1.99 nM; with huH-1 (read-out: Rel IC50), 0.59 nM; in the assay with NCI-H1993 (read-out: Abs IC50), 0.17 nM. In addition, the IC50 in the assay on NCI-H1993 (read-out: Rel IC50) is 0.09 nM; in the assay on Colo205 cells, 27 nM; in the assay on NCI-H1573 (read-out: Abs IC50) it was above 20 nM; with NCI-H1573 (read-out: Rel IC50), 0.99 nM; in the assay on SK-HEP-1, 1.96 nM; in the assay with THP-1 (read-out: Abs IC50) it was 0.08 nM. Also, the IC50 is 0.03 nM with THP-1 (read-out: Rel IC50); above 20 nM with HT-29 (HT-29, read-out: Abs IC50); 0.06 nM in the assay with HT-29 (HT-29, read-out: Rel IC50); 7.3 nM in the assay with HT-29 (HT-29, B-Raf V600E, colon, CellTiter-Glo, read-out: IC50). In addition, the “dose at which phospho-ERK activity is substantially eliminated” value in assay [2] is recorded as 370 nM. For the same molecule, in assay [2] (0.17 to 10000 nM), the “phospho-MEK and phospho-ERK inhibition” value is “dose dependent phospho-MEK and phospho-ERK inhibition”.
